Assay results as given in ChEMBL document CHEMBL1201862, “PubChem BioAssay data set” (2004).
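Five concentrations, 48 hours, 96-well plates. GI50 marks 50% less growth.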 Active and inactive are the calls of the source. Cut-off read from the data, not from the text of the source: active = GI50 up to about 1.1 µM and inactive = higher.

Key:
Assay in all cases: growth of human tumour cells (NCI), 48 h
SNB-75 = system: SNB-75
M14 = system: M14
UACC-257 = system: UACC-257
NCI-H226 = system: NCI-H226
A498 = system: A498
K562 = system: K562
DMS-273 = system: DMS-273
HCC 2998 = system: HCC 2998
SK-MEL-2 = system: SK-MEL-2
U-251 = system: U-251
UACC-62 = system: UACC-62
NCI/ADR-RES = system: NCI/ADR-RES
SF-268 = system: SF-268
KM12 = system: KM12
HOP-92 = system: HOP-92
PC-3 = system: PC-3
MCF7 = system: MCF7
MDA-N = system: MDA-N
SN12C = system: SN12C
MOLT-4 = system: MOLT-4

SMILES | GI50 (SNB-75) | GI50 (M14) | GI50 (UACC-257) | GI50 (NCI-H226) | GI50 (A498) | GI50 (K562) | GI50 (DMS-273) | GI50 (HCC 2998) | GI50 (SK-MEL-2) | GI50 (U-251) | GI50 (UACC-62) | GI50 (NCI/ADR-RES) | GI50 (SF-268) | GI50 (KM12) | GI50 (HOP-92) | GI50 (PC-3) | GI50 (MCF7) | GI50 (MDA-N) | GI50 (SN12C) | GI50 (MOLT-4)
C=CCc1cc(-c2cc(CC=C)c(O)c(CN(CCCl)CCCl)c2)cc(CN(CCCl)CCCl)c1O | 16300 nM (inactive) | 15400 nM (inactive) | 16000 nM (inactive) | 15600 nM (inactive) | 20700 nM (inactive) | 32800 nM (inactive) | 7830 nM (inactive) | 15600 nM (inactive) | 22100 nM (inactive) | 10800 nM (inactive) | 7890 nM (inactive) | 18900 nM (inactive) | 12700 nM (inactive) | 18200 nM (inactive) | 15400 nM (inactive) | 9080 nM (inactive) | 5770 nM (inactive) | 15200 nM (inactive) | 9680 nM (inactive) | 2520 nM (inactive)
COc1c(OC(C)=O)c(OC(C)=O)cc2c1-c1ccc(OC)c(=O)cc1C(NC(C)=O)CC2 (centres undefined) | < 10 nM (active) | < 12.5 nM (active) |  | 331 nM (active) | 51.3 nM (active) | < 12.3 nM (active) | 17.2 nM (active) | 21.7 nM (active) | 18.6 nM (active) | 32.1 nM (active) | < 10 nM (active) | 1600 nM (inactive) | 21.8 nM (active) | 15.4 nM (active) | 17.3 nM (active) | 49.3 nM (active) | < 10 nM (active) | < 10 nM (active) | 34.8 nM (active) | 15.5 nM (active)
